Earlier results in patent US20190167598A1, “A NOVEL TREATMENT REGIMEN INVOLVING SAPROPTERIN DIHYDROCHLORIDE” (DIPHARMA S.A., priority 2016, published 2019).

Assays:
[1] = in vivo
[2] = neutral or basic conditions

## C[C@H](O)[C@H](O)[C@H]1CNc2[nH]c(N)nc(=O)c2N1.Cl.Cl [sapropterin, (6R)-2-amino-6-[(1R,2S)-1,2-dihydroxypropyl]-5,6,7,8-tetrahydropteridin-4(1H)-one dihydrochloride]
[1]
  sapropterin elimination half-life time: about 4 h
[2]
  oxidation into dihydrobiopterin: readily oxidized
